From patent US12419888B2, “Methods of treating elevated plasma cholesterol” (INSTITUT DE CARDIOLOGIE DE MONTREAL, priority 2020, dated 2025)
pKd: −log10 of the molar value.

What was measured:
[1] = test system: LDLR protein levels in HepG2 cells; experiment: Western blot analysis of relative LDLR protein levels in HepG2 cells after treatment; type: cell-based, human; conditions: HepG2 cells incubated overnight with compound, 0.2 μM to 20 μM
Description: Cell culture, treatments and cell viability assay. For phenotypic screening of PCSK9 modulators and/or LDLR small molecule inducers, human HepG2 cells were incubated overnight in conditioned media containing chemical compounds resuspended in DMSO at concentration ranging from 0.2 μM to 20 μM. […] Following incubation, media have been replaced and cells incubated for 4 h with 100 μL of phenol red-free DMEM containing 0.5 mg/mL of MTT (3-[4,5-dimethylthiazol-2-yl]-2,5-diphenyltetrazolium bromide; thiazolyl blue; catalog no. M5655, Sigma-Aldrich), following manufacturer's instructions.
Western Blot Analysis, Immunocytochemistry and LDLR Activity Assay. Following incubation, cells were washed three times in phosphate-buffered saline (PBS) and lysed in radioimmune precipitation assay buffer (50 mM Tris/HCl, pH 8.0, 1% (v/v) Nonidet P-40, 0.5% sodium deoxycholate, 150 mM NaCl, and 0.1% (v/v) SDS) supplemented with a complete protease inhibitor mixture (catalog no. 11 697 498 001, Roche Applied Science). Proteins were separated by SDS polyacrylamide gel electrophoresis, blotted on nitrocellulose membranes (Bio-Rad), blocked incubated with indicated antibodies as described (Poirier S, et al., Cell Rep, 2015). For immunocytochemistry analysis, cells were permeabilized or not with 0.1% Triton X-100/PBS for 10 min, and incubated with 150 mM glycine, blocked and incubated with indicated primary and secondary antibodies. Immunofluorescence analyses were performed with an Olympus FluoView FV10i confocal microscope (Poirier et al., Cell Rep. 2015; 13(10):2064-2071). For LDLR activity assay, HepG2 cells were incubated overnight without or with a given compound in the presence of 5 μg/ml fluorescent labelled DiI-LDL (Alfa Aesar, Cat. #J65330) and co-stained for LDLR if applicable, as described (Poirier et al., J Biol Chem. 2009; 284(42):28856-28864). Immunofluorescence analyses were performed with an Olympus FluoView FV10i confocal microscope.

Biotinylated PCSK9 = Biotinylated PCSK9 (Homo sapiens (Human), UniProt Q8NBP7); experiment: Binding affinity of SHIM compounds to PCSK9 by surface plasmon resonance spectroscopy (Biacore T200); conditions: SPR, range tested 0.5-10 uM, 1:1 Langmuir model, NB = no binding detected in the tested range; for pKd: read-out: KD - equilibrium dissociation constant; for kon: read-out: ka - association rate constant; for koff: read-out: kd - dissociation rate constant
Description: Studies of SHIM compounds—PCSK9 interactions. […] Biotinylated PCSK9 (ACRO Biosystems) at 1 μg/mL has been captured on a chip on which streptavidin has been immobilized with amine-directed chemistry according to the manufacturer's instructions (6000 RU) to a density of 6000 RU in PBS-P ([…], 0.005% Tween 20, pH7.4) buffer with 1% DMSO. SHIMs at 10, 3.3, 1.1, 0.33 and 0.11 uM were injected at 30 uL/min. […] Double reference method of analysis was used with the reference channel containing a reference biotinylated protein captured at 6000 RU.

[2] = test system: hypercholesterolemic C57BL/6 Pcsk9 KO mice; experiment: Efficacy and safety in hypercholesterolemic C57BL/6 Pcsk9 KO mice on Western diet, oral gavage; type: in vivo; conditions: 40 mg/kg/day oral gavage for 10 days
Description: Animal studies. All animal studies were approved by the Montreal Heart Institute (MHI) Animal Care and Ethical committee. For in vivo proof-of-concept animal studies, wild-type C57BL/6 or Pcsk9 knockout male mice were fed on Western diet containing 48.5% w/w carbohydrate, 21.2% w/w fat, 17.3% w/w protein and 0.2% w/w cholesterol (catalog no. TD.88137, Envigo) for 14 days. Chemical compounds were mixed in DMSO/propylene glycol/water; 1:7:2 (v/v) and administered by oral gavage at 0 (vehicle) or 40 mg/kg/day for 10 days in mice on Western diet. Plasma lipoprotein cholesterol profiles were obtained from 100 μL of pooled plasma injected on a Superose 6 10/300 GL (catalog no. 17-5172-01, GE Life Sciences) and eluted with PBS at a flow rate of 0.1 mL per min at 4° C. mounted on a AKTA explorer system (GE Healthcare). Serum aspartate aminotransferase (AST), alanine transaminase (ALT), insulin, glucose and complete hematology tests were measured by the Montreal Heart Institute biochemical clinical chemistry platform according to manufacturer's recommendations.

Biotinylated PCSK9, sequence (Q8NBP7 153-692): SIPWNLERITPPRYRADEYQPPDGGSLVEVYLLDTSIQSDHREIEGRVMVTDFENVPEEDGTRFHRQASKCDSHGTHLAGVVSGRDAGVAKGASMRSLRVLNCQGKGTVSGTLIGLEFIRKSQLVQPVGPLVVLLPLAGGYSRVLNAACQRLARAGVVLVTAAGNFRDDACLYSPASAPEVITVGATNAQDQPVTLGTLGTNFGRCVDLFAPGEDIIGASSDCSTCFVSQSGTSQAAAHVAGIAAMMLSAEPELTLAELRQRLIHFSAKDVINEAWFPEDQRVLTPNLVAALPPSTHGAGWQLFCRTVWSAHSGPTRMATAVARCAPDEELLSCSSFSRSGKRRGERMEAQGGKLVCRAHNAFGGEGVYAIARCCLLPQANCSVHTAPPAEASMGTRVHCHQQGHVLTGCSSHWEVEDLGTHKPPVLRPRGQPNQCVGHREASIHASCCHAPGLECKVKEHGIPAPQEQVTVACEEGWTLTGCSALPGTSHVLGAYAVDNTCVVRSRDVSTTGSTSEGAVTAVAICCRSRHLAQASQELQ

Row | Compound | LDLR Fold (relative LDLR protein levels) [1] [Fold] | other results
1 | C[C@@]1(c2ccc3ccccc3c2)NC(=O)N(CC(=O)N2CCC(C(=O)N3CCCCCC3)CC2)C1=O (stereo in doubt) [Compound 16, 3-{2-[4-(azepane-1-carbonyl)piperidin-1-yl]-2-oxoethyl}-5-methyl-5-(naphthalen-2-yl)imidazolidine-2,4-dione] | 2.1 ± 1.2 | pKd (Biotinylated PCSK9): 5.41; kon (Biotinylated PCSK9): 22800 M⁻¹ s⁻¹; koff (Biotinylated PCSK9): 0.09 s⁻¹
2 | O=C(c1csc(-c2cccs2)n1)N1CCc2c([nH]c3ccccc23)C1c1ccccn1 (stereo not drawn) [Compound 26, 1-(2-pyridinyl)-2-{[2-(2-thienyl)-1,3-thiazol-4-yl]carbonyl}-2,3,4,9-tetrahydro-1H-beta-carboline] | 1.9 ± 0.5 | pKd (Biotinylated PCSK9): 4.96; kon (Biotinylated PCSK9): 104000 M⁻¹ s⁻¹; koff (Biotinylated PCSK9): 1.14 s⁻¹; ALT [2]: 24 U/L; AST [2]: 67 U/L; Glucose [2]: 16.3 mmol/L; ΔBody Weight (D 10 − D 0) [2]: 99%; HDL-C ([2]; Western diet): 3.00 mmol/L; LDL-C (measured) ([2]; Western diet): 0.23 mmol/L; TC ([2]; Western diet): 3.03 mmol/L; TG ([2]; Western diet): 0.90 mmol/L; nonHDL-C ([2]; Western diet): 0.04 mmol/L; LDL-C (pooled plasma) (FPLC AUC) (Fold Change %) ([2]; pooled plasma FPLC): −61%
3 | CC1(c2ccc3ccccc3c2)NC(=O)N(CC(=O)N2CCC(C(=O)Nc3ccccc3)CC2)C1=O (stereo not shown) [Compound 14, 1-[2-[4-methyl-4-(2-naphthyl)-2,5-dioxo-imidazolidin-1-yl]acetyl]-N-phenyl-piperidine-4-carboxamide] | 2.0 ± 0.7 | pKd (Biotinylated PCSK9): 4.86; kon (Biotinylated PCSK9): 14500 M⁻¹ s⁻¹; koff (Biotinylated PCSK9): 0.19 s⁻¹
4 | Cc1ccc(-c2nnc(N3CCN(C(=O)CN4C(=O)c5ccccc5C4=O)CC3)c3ccccc23)cc1 [Compound 36, 2-(2-{4-[4-(4-methylphenyl)phthalazin-1-yl]piperazin-1-yl}-2-oxoethyl)-2,3-dihydro-1H-isoindole-1,3-dione] | 0.8 | 
5 | COc1ccccc1[C@H]1N=C(N2CCN(c3cccc(Cl)c3)CC2)N=C2N=C(C)C=C(O)N21 [Compound 33, 2-[4-(3-chlorophenyl)piperazin-1-yl]-4-(2-methoxyphenyl)-8-methyl-1,4-dihydro-6H-pyrimido[1,2-a][1,3,5]triazin-6-ol] | 1.0 | 
6 | C[C@H](NC(=O)[C@@H]1Cc2c([nH]c3ccccc23)[C@H]2c3ccccc3C(=O)N21)C(=O)NC1CCCC1 [Compound 1, (2S)—N-cyclopentyl-2-{[(11 S)-9-oxo-10,20-diazapentacyclo[11.7.0.0^2,^10.0^3,^8.0^14,^19]icosa-1(13),3,5,7,14,16,18-heptaen-11-yl]formamido}propanamide] | 1.2 ± 0.2 | 
7 | CC1=NC2=NC(NCCc3c[nH]c4ccccc34)=N[C@H](c3ccccc3)N2C(O)=C1 (stereo in doubt) [Compound 29, 2-{[2-(1H-indol-3-yl)ethyl]amino}-8-methyl-4-phenyl-4H-pyrimido[1,2-a][1,3,5]triazin-6-ol] | 0.9 | 
8 | O=C(c1cn(CCN2CCCCC2)nn1)N1CCC2(C=Cc3ccccc32)CC1 [Compound 9, 1′-{1-[2-(piperidin-1-yl)ethyl]-1H-1,2,3-triazole-4-carbonyl}spiro[indene-1,4′-piperidine]] | 0.4 ± 0.1 | 
9 | Cc1cc(C(=O)N2CCCC(C(=O)Nc3ccccc3)C2)c2ccccc2n1 (stereo not shown) [Compound 51, 1-(2-methylquinoline-4-carbonyl)-N-phenylpiperidine-3-carboxamide] | 1.2 | 
10 | CC1=NC2=NC(N3CCC(Cc4ccccc4)CC3)=N[C@H](c3cccnc3)N2C(O)=C1 (stereo in doubt) [Compound 34, 2-(4-benzylpiperidin-1-yl)-8-methyl-4-(pyridin-3-yl)-4H-pyrimido[1,2-a][1,3,5]triazin-6-ol] | 1.0 | 
11 | Cc1ccc(-c2nnc(N3CCN(C(=O)Cn4c(=O)n(C)c5ccccc54)CC3)c3ccccc23)cc1 [Compound 37, 1-methyl-3-(2-{4-[4-(4-methylphenyl)phthalazin-1-yl]piperazin-1-yl}-2-oxoethyl)-2,3-dihydro-1H-1,3-benzodiazol-2-one] | 1.0 | 
12 | COc1cc(C(=O)N2CCC[C@H](CNS(=O)(=O)c3cccs3)C2)c2ccccc2n1 (stereo in doubt) [Compound 48, N-{[1-(2-methoxyquinoline-4-carbonyl)piperidin-3-yl]methyl}thiophene-2-sulfonamide] | 1.0 | 
13 | CC(=O)N1CCC2(CC1)CC(=O)c1ccc(OCC(=O)N3CCc4ccccc43)cc1O2 [Compound 6, 1′-acetyl-7-[2-(2,3-dihydro-1H-indol-1-yl)-2-oxoethoxy]-3,4-dihydrospiro[1-benzopyran-2,4′-piperidin]-4-one] | 0.8 ± 0.3 | 
14 | O=C(Cn1[nH]c(=O)c2ccccc2c1=O)Nc1ccc(N2C(=O)c3cccc4cccc(c34)C2=O)cc1 [Compound 4, 2-(1,4-dioxo-1,2,3,4-tetrahydrophthalazin-2-yl)-N-(4-{2,4-dioxo-3-azatricyclo[7.3.1.0^{5,13}]trideca-1(13),5,7,9,11-pentaen-3-yl}phenyl)acetamide] | 1.6 ± 0.2 | 
15 | Cc1cc(C(=O)N2CCC[C@H](c3ccc(C(=O)O)cc3)C2)c2ccc(F)cc2n1 (stereo in doubt) [Compound 49, 4-[1-(7-fluoro-2-methylquinoline-4-carbonyl)piperidin-3-yl]benzoic acid] | 1.6 | 
16 | O=C(CN1CCOCC1)N1CCN(c2nnc(-c3ccccc3)c3ccccc23)CC1 [Compound 43, 2-(morpholin-4-yl)-1-[4-(4-phenylphthalazin-1-yl)piperazin-1-yl]ethan-1-one] | 0.9 | 
17 | Cc1ccc2c(CC(=O)N3CCc4c([nH]c5ccccc45)[C@H]3c3ccccn3)cc(=O)oc2c1 (stereo in doubt) [Compound 22, 7-methyl-4-{2-oxo-2-[1-(pyridin-2-yl)-1H,2H,3H,4H,9H-pyrido[3,4-b]indol-2-yl]ethyl}-2H-chromen-2-one] | 1.4 | 
18 | CC(C)(O)C#Cc1cccc(C(=O)N2CCc3c([nH]c4ccccc34)[C@H]2c2ccccn2)c1 (stereo in doubt) [Compound 21, 2-methyl-4-{3-[1-(pyridin-2-yl)-1H,2H,3H,4H,9H-pyrido[3,4-b]indole-2-carbonyl]phenyl}but-3-yn-2-ol] | 1.0 | 
19 | C[C@@]1(c2ccc3ccccc3c2)NC(=O)N(CC(=O)N2CCC(Cc3ccccc3)CC2)C1=O (stereo in doubt) [Compound 19, 3-[2-(4-benzylpiperidin-1-yl)-2-oxoethyl]-5-methyl-5-(naphthalen-2-yl)imidazolidine-2,4-dione] | 1.0 ± 0.5 | 
20 | 3-(1,3-benzodioxol-5-yl)-1-[(1S)-1-(6-methylpyridin-2-yl)-1,3,4,9-tetrahydropyrido[3,4-b]indol-2-yl]propan-1-one [Compound 23] | 1.2 | 
21 | Cc1cccc([C@H]2c3[nH]c4ccccc4c3CCN2C(=O)CCc2ccccc2)n1 (stereo in doubt) [Compound 27, 1-[1-(6-methylpyridin-2-yl)-1H,2H,3H,4H,9H-pyrido[3,4-b]indol-2-yl]-3-phenylpropan-1-one] | 1.0 | 
